For assay [1], the system named is Cabbage Looper (Trichoplusia ni, TRIPNI). Kind of assay: Bioassay on Cabbage Looper (CL), 128-well diet tray assay. The assay is classed as in vivo. As to conditions: Trichoplusia ni. How it is done: (§1) Certain molecules disclosed in this document were tested against BAW and CL using procedures described in the following examples. In the reporting of the results, the “BAW & CL Rating Table” was used (See Table Section).
Bioassays on CL were conducted using a 128-well diet tray assay. one to five second instar CL larvae were placed in each well (3 mL) of the diet tray that had been previously filled with 1 mL of artificial diet to which 50 μg/cm^2 of the test molecule (dissolved in 50 μL of 90:10 acetone-water mixture) had been applied (to each of eight wells) and then allowed to dry. Trays were covered with a clear self-adhesive cover, vented to allow gas exchange, and held at 25° C., 14:10 light-dark for five to seven days. Percent mortality was recorded for the larvae in each well; activity in the eight wells was then averaged. The results are indicated in the table entitled “Table ABC: Biological Results” (See Table Section).

Assay [2] has as its system Beet Armyworm (Spodoptera exigua, LAPHEG). The experiment in a line: Bioassay on Beet Armyworm (BAW), 128-well diet tray assay. Format: in vivo. As for the experimental part:
as §1
Bioassays on BAW were conducted using a 128-well diet tray assay. One to five second instar BAW larvae were placed in each well (3 mL) of the diet tray that had been previously filled with approximately 1.5 mL of artificial diet to which 50 μg/cm^2 of the test molecule (dissolved in 50 μL of 90:10 acetone-water mixture) had been applied (to each of eight wells) and then allowed to dry. Trays were covered with a clear self-adhesive cover, vented to allow gas exchange, and held at 25° C., 14:10 light-dark for five to seven days. Percent mortality was recorded for the larvae in each well; activity in the eight wells was then averaged. The results are indicated in the table entitled “Table ABC: Biological Results” (See Table Section).

Setting [3] is: Species CL (Cabbage Looper), read-out: CL (Biological Results, rating).
Setting [4] is: Species BAW (Beet Armyworm), read-out: BAW (Biological Results, rating).
Where [5] appears, read: Cabbage Looper, 128-well diet tray assay, read-out: CL rating.
[6] abbreviates: Beet Armyworm, 128-well diet tray assay, read-out: BAW rating.

Read-outs that look alike come from different tables or passages of the source.

On to `CS(=O)(=O)c1ccc(NC(=O)[C@H]2[C@H](c3cc(Cl)cc(Cl)c3)C2(Cl)Cl)cc1C(=O)Nc1ccc(F)cc1` (relative stereo) [F157, trans-5-(2,2-dichloro-3-(3,5-dichlorophenyl)cyclopropane-1-carboxamido)-N-(4-fluorophenyl)-2-(methylsulfonyl)benzamide], for which the pest or weed control at 50 µg/cm2 in assay [1] (setting [3]) and in assay [2] (setting [4]) was 50 to 100% in each case.
For `N#Cc1ccc(NC(=O)c2cc(NC(=O)[C@H]3[C@H](c4cc(Cl)c(Cl)c(Cl)c4)C3(Cl)Cl)ccc2Cl)c(F)c1` (relative stereo) [F104, trans-2-Chloro-N-(4-cyano-2-fluorophenyl)-5-(2,2-dichloro-3-(3,4,5-trichlorophenyl)cyclopropane-1-carboxamido)benzamide], the pest or weed control at 50 µg/cm2 in assay [1] (setting [3]) and in assay [2] (setting [4]) was 50 to 100% throughout.
Take `O=C(Nc1ccc2[nH]c(C(F)(F)F)cc2c1)c1cc(NC(=O)[C@H]2[C@H](c3cc(Cl)cc(Cl)c3)C2(Cl)Cl)ccc1Cl` (relative stereo) [F465, 2-Chloro-5-(trans)-(2,2-dichloro-3-(3,5-dichlorophenyl)cyclopropane-1-carboxamido)-N-(2-(trifluoromethyl)-1H-indol-5-yl)benzamide]: the pest or weed control at 50 µg/cm2 in assay [1] (setting [5]) and in assay [2] (setting [6]) was 50 to 100% each time.
`CC(C)(C)OC(=O)Nc1cccc(NC(=O)c2cc(NC(=O)[C@H]3[C@H](c4cc(Cl)cc(Cl)c4)C3(Cl)Cl)ccc2Cl)n1` (relative stereo) [F505, tert-Butyl (6-(2-chloro-5-(trans-2,2-dichloro-3-(3,5-dichlorophenyl)cyclopropane-1-carboxamido)benzamido)pyridin-2-yl)carbamate]: the pest or weed control at 50 µg/cm2 in assay [1] (setting [5]) and in assay [2] (setting [6]) was 50 to 100% in each case.
For the compound `CNc1ccc(NC(=O)c2cc(NC(=O)[C@H]3[C@H](c4cc(Cl)c(OC)c(Cl)c4)C3(Cl)Cl)ccc2Cl)cc1` (relative stereo) [F182, trans-2-Chloro-5-(2,2-dichloro-3-(3,5-dichloro-4-methoxyphenyl)cyclopropane-1-carboxamido)-N-(4-(methylamino)phenyl)benzamide], the pest or weed control at 50 µg/cm2 in assay [1] (setting [3]) and in assay [2] (setting [4]) was 50 to 100% throughout.
On to `O=C(Nc1ccc(F)cc1)c1cc(NC(=O)[C@H]2[C@H](c3ccccc3)C2(Cl)Cl)ccc1Cl` (relative stereo) [F109, trans-2-Chloro-5-(2,2-dichloro-3-phenylcyclopropane-1-carboxamido)-N-(4-fluorophenyl)benzamide], for which the pest or weed control at 50 µg/cm2 in assay [1] (setting [3]) and in assay [2] (setting [4]) was 50 to 100% each time.
Turning to `O=C(Nc1c(F)cccc1F)c1cc(NC(=O)[C@H]2[C@H](c3cc(F)cc(Cl)c3)C2(Cl)Cl)ccc1Cl` (relative stereo) [F160, trans-2-Chloro-5-(2,2-dichloro-3-(3-chloro-5-fluorophenyl)cyclopropane-1-carboxamido)-N-(2,6-difluorophenyl)benzamide], the pest or weed control at 50 µg/cm2 in assay [1] (setting [3]) and in assay [2] (setting [4]) was 50 to 100% throughout.
As for `CN(C(=O)c1cc(NC(=O)[C@H]2[C@H](c3cc(Cl)c(Cl)c(Cl)c3)C2(Cl)Cl)ccc1F)c1ccc(C#N)cc1F` (relative stereo) [F105, trans-N-(4-Cyano-2-fluorophenyl)-5-(2,2-dichloro-3-(3,4,5-trichlorophenyl)cyclopropane-1-carboxamido)-2-fluoro-N-methylbenzamide], the pest or weed control at 50 µg/cm2 in assay [1] (setting [3]) and in assay [2] (setting [4]) was 50 to 100% each time.
Take `O=C(Nc1ccccn1)c1cc(NC(=O)[C@H]2[C@H](c3cc(Cl)cc(Cl)c3)C2(Cl)Cl)ccc1Cl` (relative stereo) [F78, trans-2-Chloro-5-(2,2-dichloro-3-(3,5-dichlorophenyl)cyclopropane-1-carboxamido)-N-(pyridin-2-yl)benzamide]: the pest or weed control at 50 µg/cm2 in assay [1] (setting [3]) and in assay [2] (setting [4]) was 50 to 100% in each case.
Turning to `Cc1c(Cl)cc([C@H]2[C@H](C(=O)Nc3ccc(Cl)c(C(=O)Nc4c(F)cccc4F)c3)C2(Cl)Cl)cc1Cl` (relative stereo) [F121, trans-2-Chloro-5-(2,2-dichloro-3-(3,5-dichloro-4-methylphenyl)cyclopropane-1-carboxamido)-N-(2,6-difluorophenyl)benzamide], the pest or weed control at 50 µg/cm2 in assay [1] (setting [3]) and in assay [2] (setting [4]) was 50 to 100% throughout.
On to `Nc1c(F)ccc(NC(=O)c2cc(NC(=O)C3C(c4ccc(F)c(Br)c4)C3(Cl)Cl)ccc2Cl)c1F` (stereo not drawn) [F625, N-(3-Amino-2,4-difluorophenyl)-5-(3-trans-(3-bromo-4-fluorophenyl)-2,2-dichlorocyclopropane-1-carboxamido)-2-chlorobenzamide], for which the pest or weed control at 50 µg/cm2 in assay [1] (setting [5]) and in assay [2] (setting [6]) was 50 to 100% throughout.
As for `CN(C(=O)c1cc(NC(=O)[C@H]2[C@H](c3cc(Cl)c(Cl)c(Cl)c3)C2(Cl)Cl)ccc1Cl)c1ccc(C#N)cc1F` (relative stereo) [F108, trans-2-Chloro-N-(4-cyano-2-fluorophenyl)-5-(2,2-dichloro-3-(3,4,5-trichlorophenyl)cyclopropane-1-carboxamido)-N-methylbenzamide], the pest or weed control at 50 µg/cm2 in assay [1] (setting [3]) and in assay [2] (setting [4]) was 50 to 100% each time.
Turning to `N#Cc1ccc(NC(=O)c2cc(NC(=O)[C@H]3[C@H](c4cc(Cl)cc(Cl)c4)C3(Cl)Cl)ccc2Cl)c(F)c1` (relative stereo) [F144, trans-2-Chloro-N-(4-cyano-2-fluorophenyl)-5-(2,2-dichloro-3-(3,5-dichlorophenyl)cyclopropane-1-carboxamido)benzamide], the pest or weed control at 50 µg/cm2 in assay [1] (setting [3]) and in assay [2] (setting [4]) was 50 to 100% in each case.
On to `COc1c(Cl)cc([C@H]2[C@H](C(=O)Nc3ccc(Cl)c(C(=O)Nc4ccc(NC(C)=O)cc4)c3)C2(Cl)Cl)cc1Cl` (relative stereo) [F181, trans-N-(4-Acetamidophenyl)-2-chloro-5-(2,2-dichloro-3-(3,5-dichloro-4-methoxyphenyl)cyclopropane-1-carboxamido)benzamide], for which the pest or weed control at 50 µg/cm2 in assay [1] (setting [3]) and in assay [2] (setting [4]) was 50 to 100% in each case.
With `Cc1cc(F)cc(C)c1NC(=O)c1cc(NC(=O)[C@H]2[C@H](c3cc(Cl)cc(Cl)c3)C2(Cl)Cl)ccc1Cl` (relative stereo) [PF43, trans-2-Chloro-5-(2,2-dichloro-3-(3,5-dichlorophenyl)cyclopropane-1-carboxamido)-N-(4-fluoro-2,6-dimethylphenyl)benzamide], the pest or weed control at 50 µg/cm2 in assay [1] (setting [5]) and in assay [2] (setting [6]) was 50 to 100% throughout.
On to `N#Cc1ccc(NC(=O)c2cc(NC(=O)[C@H]3[C@H](c4cc(Cl)cc(Cl)c4)C3(Cl)Cl)ccc2Cl)nc1N` (relative stereo) [F292, N-(6-Amino-5-cyanopyridin-2-yl)-2-chloro-5-(trans-2,2-dichloro-3-(3,5-dichlorophenyl)cyclopropane-1-carboxamido)benzamide], for which the pest or weed control at 50 µg/cm2 in assay [1] (setting [3]) and in assay [2] (setting [4]) was 50 to 100% throughout.
In the case of `Cc1cc(NC(=O)OC(C)(C)C)ccc1NC(=O)c1cc(NC(=O)[C@H]2[C@H](c3cc(Cl)cc(Br)c3)C2(Cl)Cl)ccc1Cl` (relative stereo) [F335, tert-Butyl (4-(5-(trans-3-(3-bromo-5-chlorophenyl)-2,2-dichlorocyclopropane-1-carboxamido)-2-chlorobenzamido)-3-methylphenyl)carbamate], the pest or weed control at 50 µg/cm2 in assay [1] (setting [3]) and in assay [2] (setting [4]) was 50 to 100% in each case.
For `O=C(Nc1nc2cc(Cl)ccc2o1)c1cc(NC(=O)C2C(c3cc(Cl)cc(Cl)c3)C2(Cl)Cl)ccc1Cl` (stereo not drawn) [F448, 2-Chloro-N-(5-chlorobenzo[d]oxazol-2-yl)-5-(trans)-2,2-dichloro-3-(3,5-dichlorophenyl)cyclopropane-1-carboxamido)benzamide], the pest or weed control at 50 µg/cm2 in assay [1] (setting [5]) and in assay [2] (setting [6]) was 50 to 100% throughout.
For the compound `O=C(Nc1ccc([N+](=O)[O-])cc1)c1cc(NC(=O)[C@H]2[C@H](c3cc(Cl)cc(Cl)c3)C2(Cl)Cl)ccc1Cl` (relative stereo) [F137, trans-2-chloro-5-(2,2-dichloro-3-(3,5-dichlorophenyl)cyclopropane-1-carboxamido)-N-(4-nitrophenyl)benzamide], the pest or weed control at 50 µg/cm2 in assay [1] (setting [3]) and in assay [2] (setting [4]) was 50 to 100% in each case.
As for `O=C(Nc1c(F)cccc1F)c1cc(NC(=O)[C@H]2[C@H](c3cc(C(F)(F)F)cc(C(F)(F)F)c3)C2(Cl)Cl)ccc1Cl` (relative stereo) [F86, trans-5-(3-(3,5-Bis(trifluoromethyl)phenyl)-2,2-dichlorocyclopropane-1-carboxamido)-2-chloro-N-(2,6-difluorophenyl)benzamide], the pest or weed control at 50 µg/cm2 in assay [1] (setting [3]) and in assay [2] (setting [4]) was 50 to 100% in each case.

Source of the values: patent US10219516B2, “Molecules having pesticidal utility, and intermediates, compositions, and processes, related thereto” (priority 2015, dated 2019).
